Paper PMC2991631 (Biochemical pharmacology, 2010)
Like-named read-outs stand apart in the source and are kept apart here.

Tests used:
hCE1 (CES1) = settings: hCE1 relative to hiCE; cited from earlier work
[1] = test system: carboxylesterases (CE) in human liver microsomal extracts; experiment: CE activity; type: biochemical; settings: 10μM 876
[2] = test system: carboxylesterases (hiCE, hCE1) in human liver microsomal extracts; type: biochemical; settings: for CPT-11 hydrolysis + 876 / Loss in CPT-11 hydrolysis + 876 / Loss in CPT-11 hydrolysis + 876 [%]: 10μM 876

Structure (SMILES): CCc1c2c(nc3ccc(OC(=O)N4CCC(N5CCCCC5)CC4)cc13)-c1cc3c(c(=O)n1C2)COC(=O)[C@]3(O)CC [CPT-11, 7-ethyl-10-[4-(1-piperidino)-1-piperidino]carbonyloxycamptothecin]
- Km for CPT-11, hCE1 higher than hiCE (hCE1 (CES1)): ~ 25 fold

Structure (SMILES): O=S(=O)(Nc1c(F)c(F)c(NS(=O)(=O)c2ccc(Br)cc2)c(F)c1F)c1ccc(Br)cc1 [compound 876, N,N'-(2,3,5,6-tetrafluoro-1,4-phenylene)bis(4-bromobenzenesulfonamide)]
- CE activity + 876 ([1]; liver microsomal extract HG03): 3759 ± 84 nmol/mg/min
- Loss in CE activity + 876 ([1]; liver microsomal extract HG03): 2816 nmol/mg/min
- Loss in CE activity + 876 [%] ([1]; liver microsomal extract HG03): 42.8%
- CE activity + 876 ([1]; liver microsomal extract HG74): 4341 ± 152 nmol/mg/min
- Loss in CE activity + 876 ([1]; liver microsomal extract HG74): 2866 nmol/mg/min
- Loss in CE activity + 876 [%] ([1]; liver microsomal extract HG74): 39.8%
- CE activity + 876 ([1]; liver microsomal extract HG93): 2938 ± 87 nmol/mg/min
- Loss in CE activity + 876 ([1]; liver microsomal extract HG93): 1790 nmol/mg/min
- Loss in CE activity + 876 [%] ([1]; liver microsomal extract HG93): 37.9%
- CE activity + 876 ([1]; liver microsomal extract HG95): 3285 ± 242 nmol/mg/min
- Loss in CE activity + 876 ([1]; liver microsomal extract HG95): 1840 nmol/mg/min
- Loss in CE activity + 876 [%] ([1]; liver microsomal extract HG95): 35.9%
- CE activity + 876 ([1]; liver microsomal extract HG103): 2224 ± 202 nmol/mg/min
- Loss in CE activity + 876 ([1]; liver microsomal extract HG103): 1482 nmol/mg/min
- Loss in CE activity + 876 [%] ([1]; liver microsomal extract HG103): 40.0%
- CE activity + 876 ([1]; liver microsomal extract HH13): 672 ± 47 nmol/mg/min
- Loss in CE activity + 876 ([1]; liver microsomal extract HH13): 221 nmol/mg/min
- Loss in CE activity + 876 [%] ([1]; liver microsomal extract HH13): 24.8%
- CE activity + 876 ([1]; liver microsomal extract HH61): 3925 ± 125 nmol/mg/min
- Loss in CE activity + 876 ([1]; liver microsomal extract HH61): 1953 nmol/mg/min
- Loss in CE activity + 876 [%] ([1]; liver microsomal extract HH61): 33.2%
- CE activity + 876 ([1]; liver microsomal extract HH74): 2235 ± 203 nmol/mg/min
- Loss in CE activity + 876 ([1]; liver microsomal extract HH74): 1471 nmol/mg/min
- Loss in CE activity + 876 [%] ([1]; liver microsomal extract HH74): 39.7%
- CE activity + 876 ([1]; liver microsomal extract HK37): 4052 ± 120 nmol/mg/min
- Loss in CE activity + 876 ([1]; liver microsomal extract HK37): 2280 nmol/mg/min
- Loss in CE activity + 876 [%] ([1]; liver microsomal extract HK37): 36%
- CE activity + 876 ([1]; liver microsomal extract SD003): 3434 ± 224 nmol/mg/min
- Loss in CE activity + 876 ([1]; liver microsomal extract SD003): 1809 nmol/mg/min
- Loss in CE activity + 876 [%] ([1]; liver microsomal extract SD003): 34.5%
- CE activity + 876 ([1]; liver microsomal extract SD004): 3460 ± 234 nmol/mg/min
- Loss in CE activity + 876 ([1]; liver microsomal extract SD004): 2162 nmol/mg/min
- Loss in CE activity + 876 [%] ([1]; liver microsomal extract SD004): 38.5%
- CE activity + 876 ([1]; liver microsomal extract SD104): 3493 ± 146 nmol/mg/min
- Loss in CE activity + 876 ([1]; liver microsomal extract SD104): 1895 nmol/mg/min
- Loss in CE activity + 876 [%] ([1]; liver microsomal extract SD104): 35.2%
- CE activity + 876 ([1]; liver microsomal extract SD120): 2610 ± 102 nmol/mg/min
- Loss in CE activity + 876 ([1]; liver microsomal extract SD120): 1885 nmol/mg/min
- Loss in CE activity + 876 [%] ([1]; liver microsomal extract SD120): 41.9%
- CE activity + 876 ([1]; liver microsomal extract SD123): 3874 ± 101 nmol/mg/min
- Loss in CE activity + 876 ([1]; liver microsomal extract SD123): 2071 nmol/mg/min
- Loss in CE activity + 876 [%] ([1]; liver microsomal extract SD123): 34.8%
- CE activity + 876 ([1]; liver microsomal extract SD124): 1997 ± 189 nmol/mg/min
- Loss in CE activity + 876 ([1]; liver microsomal extract SD124): 1411 nmol/mg/min
- Loss in CE activity + 876 [%] ([1]; liver microsomal extract SD124): 41.4%
- CE activity + 876 ([1]; liver microsomal extract SD128): 4144 ± 401 nmol/mg/min
- Loss in CE activity + 876 ([1]; liver microsomal extract SD128): 2169 nmol/mg/min
- Loss in CE activity + 876 [%] ([1]; liver microsomal extract SD128): 34.4%
- CE activity + 876 ([1]; liver microsomal extract SD132): 5018 ± 209 nmol/mg/min
- Loss in CE activity + 876 ([1]; liver microsomal extract SD132): 3176 nmol/mg/min
- Loss in CE activity + 876 [%] ([1]; liver microsomal extract SD132): 38.8%
- CE activity + 876 ([1]; liver microsomal extract SD134): 345 ± 28 nmol/mg/min
- Loss in CE activity + 876 ([1]; liver microsomal extract SD134): 197 nmol/mg/min
- Loss in CE activity + 876 [%] ([1]; liver microsomal extract SD134): 36.4%
- CE activity + 876 ([1]; liver microsomal extract SD136): 1719 ± 243 nmol/mg/min
- Loss in CE activity + 876 ([1]; liver microsomal extract SD136): 1477 nmol/mg/min
- Loss in CE activity + 876 [%] ([1]; liver microsomal extract SD136): 46.2%
- CPT-11 hydrolysis + 876 ([2]; liver microsomal extract HG03): 29.6 ± 0.64 pmol/mg/h
- Loss in CPT-11 hydrolysis + 876 ([2]; liver microsomal extract HG03): 14.7 pmol/mg/h
- Loss in CPT-11 hydrolysis + 876 [%] ([2]; liver microsomal extract HG03): 33.1%
- CPT-11 hydrolysis + 876 ([2]; liver microsomal extract HG74): 25.8 ± 1.1 pmol/mg/h
- Loss in CPT-11 hydrolysis + 876 ([2]; liver microsomal extract HG74): 14.1 pmol/mg/h
- Loss in CPT-11 hydrolysis + 876 [%] ([2]; liver microsomal extract HG74): 35.3%
- CPT-11 hydrolysis + 876 ([2]; liver microsomal extract HG93): 18.2 ± 0.42 pmol/mg/h
- Loss in CPT-11 hydrolysis + 876 ([2]; liver microsomal extract HG93): 12.4 pmol/mg/h
- Loss in CPT-11 hydrolysis + 876 [%] ([2]; liver microsomal extract HG93): 40.5%
- CPT-11 hydrolysis + 876 ([2]; liver microsomal extract HG95): 16.2 ± 0.21 pmol/mg/h
- Loss in CPT-11 hydrolysis + 876 ([2]; liver microsomal extract HG95): 8.30 pmol/mg/h
- Loss in CPT-11 hydrolysis + 876 [%] ([2]; liver microsomal extract HG95): 33.9%
- CPT-11 hydrolysis + 876 ([2]; liver microsomal extract HG103): 19.4 ± 0.14 pmol/mg/h
- Loss in CPT-11 hydrolysis + 876 ([2]; liver microsomal extract HG103): 13.2 pmol/mg/h
- Loss in CPT-11 hydrolysis + 876 [%] ([2]; liver microsomal extract HG103): 40.1%
- CPT-11 hydrolysis + 876 ([2]; liver microsomal extract HH13): 18.5 ± 0.14 pmol/mg/h
- Loss in CPT-11 hydrolysis + 876 ([2]; liver microsomal extract HH13): 15.4 pmol/mg/h
- Loss in CPT-11 hydrolysis + 876 [%] ([2]; liver microsomal extract HH13): 45.4%
- CPT-11 hydrolysis + 876 ([2]; liver microsomal extract HH61): 13.4 ± 0.07 pmol/mg/h
- Loss in CPT-11 hydrolysis + 876 ([2]; liver microsomal extract HH61): 8.80 pmol/mg/h
- Loss in CPT-11 hydrolysis + 876 [%] ([2]; liver microsomal extract HH61): 39.7%
- CPT-11 hydrolysis + 876 ([2]; liver microsomal extract HH74): 7.14 ± 0.23 pmol/mg/h
- Loss in CPT-11 hydrolysis + 876 ([2]; liver microsomal extract HH74): 8.22 pmol/mg/h
- Loss in CPT-11 hydrolysis + 876 [%] ([2]; liver microsomal extract HH74): 53.5%
- CPT-11 hydrolysis + 876 ([2]; liver microsomal extract HK37): 17.0 ± 0.57 pmol/mg/h
- Loss in CPT-11 hydrolysis + 876 ([2]; liver microsomal extract HK37): 18.4 pmol/mg/h
- Loss in CPT-11 hydrolysis + 876 [%] ([2]; liver microsomal extract HK37): 51.9%
- CPT-11 hydrolysis + 876 ([2]; liver microsomal extract SD003): 34.2 ± 0.92 pmol/mg/h
- Loss in CPT-11 hydrolysis + 876 ([2]; liver microsomal extract SD003): 20.5 pmol/mg/h
- Loss in CPT-11 hydrolysis + 876 [%] ([2]; liver microsomal extract SD003): 37.5%
- CPT-11 hydrolysis + 876 ([2]; liver microsomal extract SD004): 19.3 ± 1.0 pmol/mg/h
- Loss in CPT-11 hydrolysis + 876 ([2]; liver microsomal extract SD004): 14.6 pmol/mg/h
- Loss in CPT-11 hydrolysis + 876 [%] ([2]; liver microsomal extract SD004): 43.0%
- CPT-11 hydrolysis + 876 ([2]; liver microsomal extract SD104): 13.7 ± 0.07 pmol/mg/h
- Loss in CPT-11 hydrolysis + 876 ([2]; liver microsomal extract SD104): 5.80 pmol/mg/h
- Loss in CPT-11 hydrolysis + 876 [%] ([2]; liver microsomal extract SD104): 29.8%
- CPT-11 hydrolysis + 876 ([2]; liver microsomal extract SD120): 18.5 ± 0.14 pmol/mg/h
- CPT-11 hydrolysis + 876 ([2]; liver microsomal extract SD123): 17 ± 0.14 pmol/mg/h
- Loss in CPT-11 hydrolysis + 876 ([2]; liver microsomal extract SD123): 13.0 pmol/mg/h
- Loss in CPT-11 hydrolysis + 876 [%] ([2]; liver microsomal extract SD123): 43.2%
- CPT-11 hydrolysis + 876 ([2]; liver microsomal extract SD124): 15.8 ± 0.28 pmol/mg/h
- Loss in CPT-11 hydrolysis + 876 ([2]; liver microsomal extract SD124): 11.3 pmol/mg/h
- Loss in CPT-11 hydrolysis + 876 [%] ([2]; liver microsomal extract SD124): 41.7%
- CPT-11 hydrolysis + 876 ([2]; liver microsomal extract SD128): 16.5 ± 0.35 pmol/mg/h
- Loss in CPT-11 hydrolysis + 876 ([2]; liver microsomal extract SD128): 13.1 pmol/mg/h
- Loss in CPT-11 hydrolysis + 876 [%] ([2]; liver microsomal extract SD128): 44.3%
- CPT-11 hydrolysis + 876 ([2]; liver microsomal extract SD132): 14.1 ± 0.50 pmol/mg/h
- Loss in CPT-11 hydrolysis + 876 ([2]; liver microsomal extract SD132): 12.6 pmol/mg/h
- Loss in CPT-11 hydrolysis + 876 [%] ([2]; liver microsomal extract SD132): 47.2%
- CPT-11 hydrolysis + 876 ([2]; liver microsomal extract SD134): 8.49 ± 0.18 pmol/mg/h
- Loss in CPT-11 hydrolysis + 876 ([2]; liver microsomal extract SD134): 8.96 pmol/mg/h
- Loss in CPT-11 hydrolysis + 876 [%] ([2]; liver microsomal extract SD134): 51.3%
- CPT-11 hydrolysis + 876 ([2]; liver microsomal extract SD136): 33.6 ± 0.64 pmol/mg/h
- Loss in CPT-11 hydrolysis + 876 ([2]; liver microsomal extract SD136): 21.8 pmol/mg/h
- Loss in CPT-11 hydrolysis + 876 [%] ([2]; liver microsomal extract SD136): 39.3%
- effect on CPT-11 activation in liver microsomal samples ([2]; selective hiCE inhibitor 876): unable to reduce the levels of CPT-11 activation in liver microsomal samples to zero
